Results: ChEMBL document CHEMBL3774350, “The discovery of 2-substituted phenol quinazolines as potent RET kinase inhibitors with improved KDR selectivity” (Eur J Med Chem, 2016)

experiment: Aqueous solubility of compound by LC-MS/MS analysis; assay type: physicochemical; conditions: not given

With `COc1cc2ncnc(Nc3c(F)ccc(O)c3C)c2cc1OC` the solubility was greater than 100 µM.

experiment: Cytotoxicity in mouse BA/F3 cells after 48 hrs by Cell titre glo-based luminescence assay; conditions: BaF3, 48 h

`COc1cc2ncnc(Nc3cccc(O)c3Cl)c2cc1OC` and `COc1cc2ncnc(Nc3cccc(O)c3O)c2cc1OC` cannot be ordered by IC50: greater than 10 µM for the first, greater than 10 µM for the second.

`COc1cc2ncnc(Nc3c(F)ccc(O)c3Cl)c2cc1OC` and `COc1cc2ncnc(Nc3c(F)ccc(O)c3F)c2cc1OC` cannot be ordered by IC50: greater than 10 µM for the first, greater than 10 µM for the second.

`COc1cc2ncnc(Nc3c(Cl)ccc(O)c3F)c2cc1OC` and `COc1cc2ncnc(Nc3c(F)ccc(O)c3C)c2cc1OC` cannot be ordered by IC50: greater than 10 µM for the first, greater than 10 µM for the second.

`COc1cc2ncnc(Nc3cc(O)c(C)cc3F)c2cc1OC` and `COc1cc2ncnc(Nc3cc(F)cc(O)c3C)c2cc1OC` cannot be ordered by IC50: greater than 1 µM for the first, greater than 10 µM for the second.

`COc1cc2ncnc(Nc3cccc(O)c3)c2cc1OC` and `COc1cc2ncnc(Nc3cccc(O)c3Br)c2cc1OC` cannot be ordered by IC50: greater than 10 µM for the first, greater than 10 µM for the second.

`COc1cc2ncnc(Nc3cccc(O)c3C)c2cc1OC` gave an IC50 greater than 10 µM.
